# Source: patent publication US11555012B2 (Nimbus Artemis, Inc., priority 2018, dated 2023)
# Legend:
# ACL [1] = biological target: T1, ACL (Homo sapiens (Human), UniProt P53396); assay: ADP-Glo Assay
# Target sequence in this assay (P53396 other isoform, or with tags, fused parts or gaps isoform P53396-2): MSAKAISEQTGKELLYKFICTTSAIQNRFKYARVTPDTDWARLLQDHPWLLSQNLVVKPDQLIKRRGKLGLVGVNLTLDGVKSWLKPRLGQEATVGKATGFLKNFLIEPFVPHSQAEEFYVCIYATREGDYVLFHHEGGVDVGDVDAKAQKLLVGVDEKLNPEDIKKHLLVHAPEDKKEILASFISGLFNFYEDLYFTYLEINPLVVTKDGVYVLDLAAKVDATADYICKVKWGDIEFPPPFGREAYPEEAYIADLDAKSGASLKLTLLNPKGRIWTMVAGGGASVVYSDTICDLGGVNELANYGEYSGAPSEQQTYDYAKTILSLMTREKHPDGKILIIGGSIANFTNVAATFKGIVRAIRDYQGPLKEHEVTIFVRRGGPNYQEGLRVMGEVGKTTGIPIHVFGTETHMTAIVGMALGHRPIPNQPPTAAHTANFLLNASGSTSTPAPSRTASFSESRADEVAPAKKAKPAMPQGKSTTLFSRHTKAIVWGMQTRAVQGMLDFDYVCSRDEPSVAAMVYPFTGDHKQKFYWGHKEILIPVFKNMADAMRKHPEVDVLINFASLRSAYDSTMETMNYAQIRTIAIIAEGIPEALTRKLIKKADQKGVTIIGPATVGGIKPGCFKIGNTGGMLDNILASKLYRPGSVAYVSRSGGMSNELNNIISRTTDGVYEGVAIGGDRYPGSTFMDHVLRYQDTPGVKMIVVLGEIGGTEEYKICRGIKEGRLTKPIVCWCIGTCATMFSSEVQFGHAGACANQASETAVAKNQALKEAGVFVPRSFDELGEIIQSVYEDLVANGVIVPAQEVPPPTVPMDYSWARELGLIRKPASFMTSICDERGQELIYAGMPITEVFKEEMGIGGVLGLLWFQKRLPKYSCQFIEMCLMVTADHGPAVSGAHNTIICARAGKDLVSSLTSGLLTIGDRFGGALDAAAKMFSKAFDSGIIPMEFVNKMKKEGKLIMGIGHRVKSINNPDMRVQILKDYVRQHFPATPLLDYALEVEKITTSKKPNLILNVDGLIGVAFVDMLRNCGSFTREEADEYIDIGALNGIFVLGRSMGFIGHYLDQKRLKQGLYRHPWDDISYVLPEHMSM
# ACL [2] = biological target: T1, ACL; assay: ACLY-MDH Coupled Assay
# Target sequence in this assay (P53396 whole entry, species assumed): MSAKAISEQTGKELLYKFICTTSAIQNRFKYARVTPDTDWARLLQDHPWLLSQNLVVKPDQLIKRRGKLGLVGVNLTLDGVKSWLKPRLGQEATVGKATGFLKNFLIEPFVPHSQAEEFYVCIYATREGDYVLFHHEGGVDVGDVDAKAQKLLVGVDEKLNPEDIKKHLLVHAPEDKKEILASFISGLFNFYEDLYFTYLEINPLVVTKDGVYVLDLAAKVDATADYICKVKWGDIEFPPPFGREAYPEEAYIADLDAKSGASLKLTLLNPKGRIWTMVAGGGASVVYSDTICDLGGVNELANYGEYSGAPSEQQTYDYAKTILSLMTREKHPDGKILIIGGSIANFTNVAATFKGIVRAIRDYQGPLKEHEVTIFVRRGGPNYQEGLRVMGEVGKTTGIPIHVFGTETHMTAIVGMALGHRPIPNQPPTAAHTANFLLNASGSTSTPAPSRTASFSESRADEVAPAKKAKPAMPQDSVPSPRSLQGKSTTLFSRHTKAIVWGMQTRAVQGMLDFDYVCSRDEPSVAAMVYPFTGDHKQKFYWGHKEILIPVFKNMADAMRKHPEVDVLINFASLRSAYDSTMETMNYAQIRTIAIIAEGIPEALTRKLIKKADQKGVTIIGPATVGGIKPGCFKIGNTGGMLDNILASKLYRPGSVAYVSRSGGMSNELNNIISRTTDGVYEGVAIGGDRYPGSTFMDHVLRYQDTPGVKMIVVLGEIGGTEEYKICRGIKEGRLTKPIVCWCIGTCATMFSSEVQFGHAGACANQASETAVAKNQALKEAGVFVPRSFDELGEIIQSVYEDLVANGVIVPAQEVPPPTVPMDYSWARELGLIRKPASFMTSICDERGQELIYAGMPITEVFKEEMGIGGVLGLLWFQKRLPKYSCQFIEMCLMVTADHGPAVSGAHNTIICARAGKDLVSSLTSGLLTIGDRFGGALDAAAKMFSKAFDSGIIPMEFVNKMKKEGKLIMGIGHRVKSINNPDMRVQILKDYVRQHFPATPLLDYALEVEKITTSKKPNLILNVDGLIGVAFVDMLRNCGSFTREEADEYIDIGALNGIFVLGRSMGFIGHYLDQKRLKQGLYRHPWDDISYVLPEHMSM
# Method: Compounds of the present invention were evaluated in an ACLY Coupled Assay.
# The assay protocol for the Coupled Assay (below) was followed:
# b) Add 1 μL cpds to 96 assay plate, Test cpd conc: 100/30/10 μM top dose, 3 folds dilution, 10+0+control (control: buffer without ACL+DMSO) points, 1000 rpm for 1 min, incubation at 25° C. for 60 min
Structure (SMILES),IC50 (ACL [1]) [nM],IC50 (ACL [2]) [nM],"IC50 (ACL [1]; read-out: ACL-ADP-Glo (IC50), 3 nM ACL, 15 μM ATP, 3 μM CoA, 300 μM Citrate) [nM]"
"O=C(c1cc(Cl)c(O)c(S(=O)(=O)Nc2cc(-c3ccncc3)ccc2F)c1)N1CCC1 [I-202, 5-(azetidine-1-carbonyl)-3-chloro-N-[2-fluoro-5-(pyridin-4-yl)phenyl]-2-hydroxybenzene-1-sulfonamide]",50 to 500,500 to 30000,
"N#Cc1cc(Cl)cc(S(=O)(=O)Nc2cc(-c3cc4ccccc4s3)c(F)cc2F)c1 [I-203, N-(5-(benzo[b]thiophen-2-yl)-2,4-difluorophenyl)-3-chloro-5-cyanobenzenesulfonamide]",500 to 20000,> 30000,
"O=C(c1cc(Cl)c(O)c(S(=O)(=O)Nc2cc(-c3ccccn3)ccc2F)c1)N1CCC1 [I-206, 5-(azetidine-1-carbonyl)-3-chloro-N-[2-fluoro-5-(pyridin-2-yl)phenyl]-2-hydroxybenzene-1-sulfonamide]",50 to 500,50 to 500,
"O=C(c1cc(Cl)c(O)c(S(=O)(=O)Cc2cc(-c3ccccc3)c(F)cc2F)c1)N1CCCC1 [I-211, (3-chloro-5-(((4,6-difluoro-[1,1′-biphenyl]-3-yl)methyl)sulfonyl)-4-hydroxyphenyl)(pyrrolidin-1-yl)methanone]",500 to 20000,500 to 30000,
"O=C(O)COc1ccc(-c2ccccc2)cc1NS(=O)(=O)c1cc(Cl)cc(Cl)c1O [I-212, 2-[[3-(3,5-dichloro-2-hydroxybenzenesulfonamido)-[1,1-biphenyl]-4-yl]oxy]acetic Acid]",50 to 500,500 to 30000,
"O=C(c1cc(Cl)c(O)c(S(=O)(=O)Nc2cc3ccsc3cc2F)c1)N1CCC1 [I-221, 5-(azetidine-1-carbonyl)-3-chloro-N-(6-fluoro-1-benzothiophen-5-yl)-2-hydroxybenzene-1-sulfonamide]",500 to 20000,500 to 30000,
"O=C(c1cc(Cl)c(O)c(S(=O)(=O)Nc2cc(-c3ccccc3)ncc2F)c1)N1CCC1 [I-222, 5-(azetidine-1-carbonyl)-3-chloro-N-(5-fluoro-2-phenylpyridin-4-yl)-2-hydroxybenzene-1-sulfonamide]",50 to 500,500 to 30000,
"N#Cc1cc(Cl)cc(S(=O)(=O)Nc2cc(-c3ccccc3)ccc2C(=O)O)c1 [I-226, 3-((3-chloro-5-cyanophenyl)sulfonamido)-[1,1′-biphenyl]-4-carboxylic acid]",500 to 20000,500 to 30000,
"O=C(c1cc(Cl)c(O)c(S(=O)(=O)N(C(=O)C2CC2)c2cc(-c3ccccc3)c(F)cc2F)c1)N1CCC1 [I-229, N-((5-(azetidine-1-carbonyl)-3-chloro-2-hydroxyphenyl)sulfonyl)-N-(4,6-difluoro-[1,1′-biphenyl]-3-yl)cyclopropanecarboxamide]",,50 to 500,< 50
"Cc1cc(C)cc(S(=O)(=O)Nc2cc(-c3ccccc3)ccc2C(=O)O)c1 [I-232, 3-((3,5-dimethylphenyl)sulfonamido)-[1,1′-biphenyl]-4-carboxylic acid]",500 to 20000,500 to 30000,
"CC(C)(Oc1ccc(-c2ccccc2)cc1NS(=O)(=O)c1cc(Cl)cc(Cl)c1O)C(=O)O [I-239, 2-((3-((3,5-dichloro-2-hydroxyphenyl)sulfonamido)-[1,1′-biphenyl]-4-yl)oxy)-2-methylpropanoic Acid]",500 to 20000,500 to 30000,
"O=S(=O)(Nc1cc(Cl)cc(-c2nccs2)c1)c1cc(Cl)cc(Cl)c1O [I-240, 3,5-dichloro-N-(3-chloro-5-(thiazol-2-yl)phenyl)-2-hydroxybenzenesulfonamide]",500 to 20000,500 to 30000,
"O=C(c1cc(Cl)c(O)c(S(=O)(=O)Nc2cc(-n3nccn3)ccc2F)c1)N1CCC1 [I-241, 5-(azetidine-1-carbonyl)-3-chloro-N-(2-fluoro-5-(2H-1,2,3-triazol-2-yl)phenyl)-2-hydroxybenzenesulfonamide]",50 to 500,500 to 30000,
"O=C(O)c1cc(-c2ccccc2)sc1NS(=O)(=O)c1cc(Cl)cc(Cl)c1 [I-242, 2-((3,5-dichlorophenyl)sulfonamido)-5-phenylthiophene-3-carboxylic Acid]",500 to 20000,500 to 30000,
